Experimental data reported in patent US7038084B2, “Succinoylamino hydroxyethylamino sulfonamides useful as retroviral protease inhibitors” (G.D. Searle & Co., priority 1992, dated 2006).
pEC50, pIC50: −log10 of the molar value. Read-outs that look alike come from different tables or passages of the source.

What was measured:
HIV protease = target: T1, HIV protease (Human immunodeficiency virus type 1 group M subtype B, UniProt P04585); test: HIV protease enzyme assay (fluorogenic substrate 2-aminobenzoyl-Ile-Nle-Phe(p-NO2)-Gln-ArgNH2); format: biochemical
T1 construct: HIV protease is diluted in the assay buffer to a final enzyme concentration of 12.3 nanomolar, based on a molecular weight of 10,780
Source text: The compounds of the present invention are effective HIV protease inhibitors. Utilizing an enzyme assay as described below, the compounds set forth in the examples herein disclosed inhibited the HIV enzyme. The preferred compounds of the present invention and their calculated IC50 (inhibiting concentration 50%, i.e., the concentration at which the inhibitor compound reduces enzyme activity by 50%) values are shown in Table 8. The enzyme method is described below. The substrate is 2-aminobenzoyl-Ile-Nle-Phe(p-NO2)-Gln-ArgNH2. The positive control is MVT-101 (Miller, M. et al, Science, 246, 1149 (1989)] The assay conditions are as follows:
The above described substrate is dissolved in DMSO, then diluted 10 fold in assay buffer. Final substrate concentration in the assay is 80 μM.
HIV protease is diluted in the assay buffer to a final enzyme concentration of 12.3 nanomolar, based on a molecular weight of 10,780.
The final concentration of DMSO is 14% and the final concentration of glycerol is 18%. The test compound is dissolved in DMSO and diluted in DMSO to 10× the test concentration; 10 μl of the enzyme preparation is added, the materials mixed and then the mixture is incubated at ambient temperature for 15 minutes. The enzyme reaction is initiated by the addition of 40 μl of substrate. The increase in fluorescence is monitored at 4 time points (0, 8, 16 and 24 minutes) at ambient temperature. Each assay is carried out in duplicate wells.

HIV-1 = test: HIV inhibition assay of acutely infected CEM cells (MTT); format: cell-based
Procedure: (§1) The HIV inhibition assay method of acutely infected cells is an automated tetrazolium based calorimetric assay essentially that reported by Pauses et al, J. Virol. Methods 20, 309–321 (1988). Assays were performed in 96-well tissue culture plates. CEM cells, a CD4^+ cell line, were grown in RPMI-1640 medium (Gibco) supplemented with a 10% fetal calf serum and were then treated with polybrene (2 μg/ml). An 80 μl volume of medium containing 1×10^4 cells was dispensed into each well of the tissue culture plate. To each well was added a 100 μl volume of test compound dissolved in tissue culture medium (or medium without test compound as a is control) to achieve the desired final concentration and the cells were incubated at 37° C. for 1 hour. A frozen culture of HIV-1 was diluted in culture medium to a concentration of 5×10^4 TCID50 per ml (TCID50=the dose of virus that infects 50% of cells in tissue culture), and a 20 μL volume of the virus sample (containing 1000 TCID50 of virus) was added to wells containing test compound and to wells containing only medium (infected control cells). Several wells received culture medium without virus (uninfected control cells). Likewise, the intrinsic toxicity of the test compound was determined by adding medium without virus to several wells containing test compound. In summary, the tissue culture plates contained the following experiments:
(§2) In experiments 2 and 4 the final concentrations of test compounds were 1, 10, 100 and 500 μg/ml. Either azidothymidine (AZT) or dideoxyinosine (ddI) was included as a positive drug control. […] DMSO was added to all control wells at an appropriate concentration.
(§3) Following the addition of virus, cells were incubated at 37° C. in a humidified, 5% CO2 atmosphere for 7 days. Test compounds could be added on days 0, 2 and 5 if desired. On day 7, post-infection, the cells in each is well were resuspended and a 100 μl sample of each cell suspension was removed for assay. A 20 μL volume of a 5 mg/ml solution of 3-(4,5-dimethylthiazol-2-yl)-2,5-diphenyltetrazolium bromide (MTT) was added to each 100 μL cell suspension, and the cells were incubated for 4 hours at […] in a 5% CO2 environment.
(§4) To each sample was added 100 μl of 10% sodium dodecylsulfate in 0.01 N HCl to lyse the cells, and samples were incubated overnight. The absorbance at 590 nm was determined for each sample using a Molecular Devices microplate reader. Absorbance values for each set of wells is compared to assess viral control infection, uninfected control cell response as well as test compound by cytotoxicity and antiviral efficacy.

CEM cells = test: Intrinsic toxicity of test compound in uninfected CEM cells (MTT); format: cell-based; settings: 7 days
Procedure: as §1, §2, §3, §4

[1] = Table 8, 80 μM substrate, 12.3 nanomolar enzyme, pH 6.4, read-out: IC50
[2] = Human immunodeficiency virus 1, CCRF-CEM, 168 h

CC(C)CCN(C[C@@H](O)[C@H](Cc1ccccc1)NC(=O)[C@H](C)C(C)(C)C(=O)OCc1ccccc1)S(=O)(=O)c1ccccc1 (relative stereo) [Entry 1]
pIC50 (HIV protease; [1]): 7.10

CC(C)CCN(C[C@@H](O)[C@H](Cc1ccccc1)NC(=O)[C@H](C)C(C)(C)C(=O)O)S(=O)(=O)c1ccccc1 (single isomer, unassigned) [Entry 1]
pEC50 (HIV-1; [2]): 7.82

CC(C)CCN(C[C@@H](O)[C@H](Cc1ccccc1)NC(=O)[C@H](C)C(C)(C)C(=O)O)S(=O)(=O)c1ccccc1 (single isomer, unassigned) [Entry 2]
pIC50 (HIV protease; [1]): 8.70

CC(C)CCN(C[C@@H](O)[C@H](Cc1ccccc1)NC(=O)[C@H](C)C(C)(C)C(N)=O)S(=O)(=O)c1ccccc1 (single isomer, unassigned) [Entry 2]
pEC50 (HIV-1; [2]): 8.05
TD50 (CEM cells; human): 60,000 nm

CC(C)CCN(C[C@@H](O)[C@H](Cc1ccccc1)NC(=O)[C@H](C)C(C)(C)C(N)=O)S(=O)(=O)c1ccccc1 (single isomer, unassigned) [Entry 3]
pIC50 (HIV protease; [1]): 8.70

CC(C)CN(C[C@@H](O)[C@H](Cc1ccccc1)NC(=O)[C@H](C)C(C)(C)C(=O)O)S(=O)(=O)c1ccccc1 [Entry 3]
pIC50 (HIV protease; Table 9, enzyme assay): 9.00
pEC50 (HIV-1; [2]): 7.38
TD50 (CEM cells; human): 220,000 nm

CC(C)CN(C[C@@H](O)[C@H](Cc1ccccc1)NC(=O)[C@H](C)C(C)(C)C(=O)OCc1ccccc1)S(=O)(=O)c1ccccc1 [Entry 4]
pIC50 (HIV protease; [1]): 7.47

CC(C)CN(C[C@@H](O)[C@H](Cc1ccccc1)NC(=O)[C@H](C)C(C)(C)C(N)=O)S(=O)(=O)c1ccccc1 [Entry 4]
pEC50 (HIV-1; [2]): 8.30
TD50 (CEM cells; human): 62,000 nm

CC(C)CN(C[C@@H](O)[C@H](Cc1ccccc1)NC(=O)[C@H](C)C(C)(C)C(=O)O)S(=O)(=O)c1ccccc1 [Entry 5]
pIC50 (HIV protease; [1]): 9.00

COc1ccc(S(=O)(=O)N(CC(C)C)C[C@@H](O)[C@H](Cc2ccccc2)NC(=O)[C@H](C)C(C)(C)C(=O)O)cc1 [Entry 5]
pEC50 (HIV-1; [2]): 7.57
TD50 (CEM cells; human): 200,000 nm

COc1ccc(S(=O)(=O)N(CC(C)C)C[C@@H](O)[C@H](Cc2ccccc2)NC(=O)[C@H](C)C(C)(C)C(=O)OCc2ccccc2)cc1 [Entry 7]
pIC50 (HIV protease; [1]): 7.80

COc1ccc(S(=O)(=O)N(CC(C)C)C[C@@H](O)[C@H](Cc2ccccc2)NC(=O)[C@H](C)C(C)(C)C(=O)O)cc1 [Entry 8]
pIC50 (HIV protease; [1]): 8.70

COc1ccc(S(=O)(=O)N(CC(C)C)C[C@@H](O)[C@H](Cc2ccccc2)NC(=O)[C@H](C)C(C)(C)C(N)=O)cc1 [Entry 9]
pIC50 (HIV protease; [1]): 8.70

Butanediamide, N^4-[2-hydroxy-3-[(3-methylbutyl)(phenylsulfonyl)amino]-1-(phenylmethyl)propyl]-2,2,3-Trimethyl-, [1S-[1R*(S*),2S*]]- [Table 8 Entry 3]
pIC50 (HIV protease; [1]): 8.70
pIC50 (HIV protease; Table 9, enzyme assay, read-out: IC50): 8.70
pEC50 (HIV-1; Table 9, CEM cells acutely infected with HIV-1, 7 days, read-out: EC50): 8.30
TD50 (CEM cells; Table 9, CEM cells without virus): 58,000 nm
